{"source": "patent US20240226048A1", "about": "“METHODS OF TREATMENT USING BEMPEDOIC ACID” (Esperion Therapeutics, Inc., priority 2023, published 2024)", "test": "CLEAR OUTCOMES trial: LDL-cholesterol, hsCRP and other lipid/biomarker end points", "format": "in vivo, human", "excerpt": "The CLEAR OUTCOMES trial was a randomized, placebo-controlled, double-blind trial that enrolled patients at 1250 sites in 32 countries. An independent Data Monitoring Committee reviewed safety and efficacy data during the trial.\nPatients 18 to 85 years of age were eligible for enrollment if they met either of two criteria for increased cardiovascular risk, a prior cardiovascular event (secondary prevention) or clinical features that placed them at high risk for a cardiovascular event (primary prevention). (Nicholls S, Lincoff A M, Bays H E, et al. Rationale and design of the CLEAR-outcomes trial: Evaluating the effect of bempedoic acid on cardiovascular events in patients with statin intolerance. Am Heart J. 2021 May; 235: 104-112) All patients provided written informed consent. Patients had to report statin intolerance due to an adverse effect that started or increased during statin therapy and resolved or improved after statin therapy was discontinued. Patients could be enrolled if they tolerated a very low average daily statin dose (e.g., an average daily dose of rosuvastatin <5 mg, atorvastatin <10 mg, simvastatin <10 mg, lovastatin <20 mg, pravastatin <40 mg, fluvastatin <40 mg, or pitavastatin <2 mg). Other lipid-lowering therapies were permitted, including ezetimibe, niacin, bile acid resins, fibrates, and/or proprotein convertase subtilisin kexin type 9 (PCSK9) inhibitors. Full inclusion and exclusion criteria are provided in Nicholls et al. (Am Heart J. 2021).\nEligible patients entered a 4-week run-in period during which patients were treated with single-blind placebo. If patients were intolerant to placebo treatment or if adherence was <80% by tablet count, they were not eligible for randomization. Patients who successfully completed the run-in period were randomly assigned in a 1:1 ratio to receive bempedoic acid at an oral dose of 180 mg or matching placebo, administered daily. Beginning 6 months after enrollment, the central laboratory notified the investigator if the patient's LDL-cholesterol level was ≥25% higher than baseline. These patients were counseled on healthy dietary guidelines and reminded to take all lipid-regulating medications. If repeat testing confirmed that LDL-cholesterol value met the threshold criteria, the provider could adjust the lipid-lowering treatment regimen per standard of care and local guidelines.\nThis was an event-driven trial designed to provide at least 90% power to detect a 15% relative risk reduction for the primary composite end point at an overall two-sided significance level of 0.05. The trial required a minimum of 1620 primary composite events with >24 months of follow-up for all patients and at least 810 first key secondary end points. The average treatment duration was estimated to be 42 months and a lost-to-follow-up rate of 1% per year. Assuming a 3.59% annual event rate in the placebo group, enrollment of 12,600 patients was required, subsequently amended to 14,000. There were no interim efficacy analyses. A hierarchical approach was prespecified to evaluate sequentially each of the six key secondary efficacy end points with statistical significance at each step required to test the next hypothesis, thereby preserving the study-wise Type I error rate at 5%. All analyses were based on the intent-to-treat principle. The primary efficacy end point was analyzed using Cox proportional hazards model with treatment as a factor to generate the hazard ratio (HR) and 95% confidence interval (CI). The p-value was obtained from a log-rank test.", "key": {"[1]": {"conditions": "Inadequately Controlled Diabetes at Baseline, median"}, "[2]": {"conditions": "Inadequately Controlled Diabetes at Baseline, observed mean"}, "[3]": {"conditions": "median, 180 mg oral daily, N = 6992"}, "[4]": {"conditions": "observed mean, 180 mg oral daily, N = 6992"}}}
{"smiles": "CC(C)(CCCCCC(O)CCCCCC(C)(C)C(=O)O)C(=O)O", "note": "[Bempedoic Acid, Bempedoic acid]", "values": [{"measurement": "Median change from baseline to month 6 in hsCRP", "setting": "180 mg oral daily, N = 6992", "result": "−22.2", "unit": "%"}, {"measurement": "Change from baseline to Month 6 in fasting glucose", "setting": "All patients, median", "result": -1.0, "unit": "mg/dL"}, {"measurement": "Change from baseline to Month 12 in fasting glucose", "setting": "All patients, median", "result": 0.0, "unit": "mg/dL"}, {"measurement": "Change from baseline to Month 6 in HbA1c (%)", "setting": "All patients, observed mean", "result": "−0.003", "unit": "%"}, {"measurement": "Change from baseline to Month 12 in HbA1c (%)", "setting": "All patients, observed mean", "result": 0.04, "unit": "%"}, {"measurement": "Change from baseline to Month 6 in fasting glucose", "setting": "[1]", "result": -4.0, "unit": "mg/dL"}, {"measurement": "Change from baseline to Month 12 in fasting glucose", "setting": "[1]", "result": -2.75, "unit": "mg/dL"}, {"measurement": "Change from baseline to Month 6 in HbA1c (%)", "setting": "[2]", "result": "−0.20", "unit": "%"}, {"measurement": "Change from baseline to Month 12 in HbA1c (%)", "setting": "[2]", "result": "−0.06", "unit": "%"}, {"measurement": "Change from baseline to month 12 in HbA1C in patients with inadequately controlled type 2 diabetes mellitus", "setting": "adjusted for baseline HbA1c, pattern-mixed model, 180 mg oral daily", "result": "−0.04", "unit": "%"}, {"measurement": "Mean change from baseline to month 6 in mean LDL-C", "setting": "adjusted for baseline LDL-C, pattern-mixed model, 180 mg oral daily, N = 6992", "result": "−21.1", "unit": "%"}, {"measurement": "reduction of hsCRP", "setting": "after 6 months treatment, compared with placebo, median baseline 2.3 mg/L", "result": 21.6, "unit": "%"}, {"measurement": "Change from baseline to month 12 in HbA1C in patients with inadequately controlled type 2 diabetes mellitus, Difference (95% CI)", "setting": "difference vs placebo", "result": "−0.03", "unit": "%"}, {"measurement": "Mean change from baseline to month 6 in mean LDL-C, Difference (95% CI)", "setting": "difference vs placebo", "result": "−20.3", "unit": "%"}, {"measurement": "Median change from baseline to month 6 in hsCRP, Difference (95% CI)", "setting": "difference vs placebo", "result": "−21.6", "unit": "%"}, {"measurement": "Percent change from baseline to Month 6 in triglycerides", "setting": "[3]", "result": "−3.4", "unit": "%"}, {"measurement": "Percent change from baseline to Month 12 in triglycerides", "setting": "[3]", "result": "−4.8", "unit": "%"}, {"measurement": "Percent change from baseline to Month 6 in HDL-C", "setting": "[4]", "result": "−5.8% ±"}, {"measurement": "Percent change from baseline to Month 6 in non-HDL-C", "setting": "[4]", "result": "−17.2% ±"}, {"measurement": "Percent change from baseline to Month 6 in total cholesterol", "setting": "[4]", "result": "−16.9% ±"}, {"measurement": "Percent change from baseline to Month 12 in HDL-C", "setting": "[4]", "result": "−5.7% ±"}, {"measurement": "Percent change from baseline to Month 12 in non-HDL-C", "setting": "[4]", "result": "−17.1% ±"}, {"measurement": "Percent change from baseline to Month 12 in total cholesterol", "setting": "[4]", "result": "−14.8% ±"}, {"measurement": "Percent change from baseline to Month 24 in non-HDL-C", "setting": "[4]", "result": "−16.2% ±"}]}
